Results on 6 compounds are retold here after patent EP2891654B1, “Optically pure benzyl-4-chlorophenyl-C-glucoside derivatives as SGLT inhibitors (diabetes mellitus)” (Xuanzhu Pharma Co., Ltd., priority 2014, dated 2015).

In general, IC50 refers to the point on the concentration scale where inhibition reaches its midpoint. A high value points to lower potency. For orientation: Tmax means the time from dosing to the highest level. The Cmax is the highest concentration seen after dosing. By AUC(0-t) is commonly meant exposure summed from dosing to a finite time, without extrapolation to infinity. High values mean more exposure, low ones less exposure. As a reminder, the AUC(0-inf) is the area under the concentration-time curve extrapolated to infinity. A low value points to low exposure. Usually half-life stands for the time in which the quantity being followed falls by half. Low values mean fast loss, high ones slow loss.

One data set deals with T1, SGLT-1 (Homo sapiens, UniProt P13866).
T1 construct: expressed in transfected cells
T1 sequence (P13866 1-664): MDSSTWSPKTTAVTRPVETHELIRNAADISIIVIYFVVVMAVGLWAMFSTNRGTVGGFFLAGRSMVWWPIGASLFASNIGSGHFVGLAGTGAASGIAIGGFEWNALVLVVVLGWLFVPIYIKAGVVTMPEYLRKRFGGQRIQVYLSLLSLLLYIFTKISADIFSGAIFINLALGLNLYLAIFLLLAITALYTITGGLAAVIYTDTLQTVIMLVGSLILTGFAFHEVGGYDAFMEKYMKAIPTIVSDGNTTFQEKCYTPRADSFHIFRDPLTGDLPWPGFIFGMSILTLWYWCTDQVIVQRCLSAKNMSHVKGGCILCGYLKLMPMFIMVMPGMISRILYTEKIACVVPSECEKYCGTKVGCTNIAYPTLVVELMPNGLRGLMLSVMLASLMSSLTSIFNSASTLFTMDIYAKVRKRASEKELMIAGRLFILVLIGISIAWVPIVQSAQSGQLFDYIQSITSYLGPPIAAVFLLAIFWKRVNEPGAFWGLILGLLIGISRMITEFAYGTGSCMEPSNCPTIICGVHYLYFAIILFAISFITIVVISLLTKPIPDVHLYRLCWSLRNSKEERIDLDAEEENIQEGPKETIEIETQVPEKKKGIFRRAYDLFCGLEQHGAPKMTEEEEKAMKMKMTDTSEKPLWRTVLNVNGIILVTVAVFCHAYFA
The experiment in a line: in-vitro assay: inhibition of sodium dependent [14C]-AMG uptake into CHO cells stably expressing human SGLT-1. In kind it is cell-based. The settings on record: 37°C, 1hr. The protocol:
In the in-vitro assay for the pharmacological activities of the present compounds, the human SGLT-2 and SGLT-1 sequences were transfected to Chinese hamster ovary cells to express stably. By measuring inhibition of the sodium dependent adsorption of [^14C]-labeled […]-D-glucopyranoside (AMG) into the cells, the half-inhibition concentration IC50 was determined. […] Buffer D: 120 mM NaCl, 4.7 mM KCl, 1.2 mM MgCl2, 2.2 mM CaCl2, 10 mM HEPES, 0.5 mM phlorizin (PH 7.4 with 1 mM Tris). Assay method: Human SGLT-2 and SGLT-1 sequences were stably expressed in the CHO cells. […] The plate was washed for five times. […] Finally, the radioactivity of [^14C]-AMG was detected with MicroBeta Trilux (purchased from PerkinElmer Co. Ltd.) according to the scintillation counting method, and the half-inhibition concentration IC50 was calculated.

The target in the next data set is T2, SGLT-2 (Homo sapiens, UniProt P31639).
T2 construct: expressed in transfected cells
T2 sequence (P31639 1-672): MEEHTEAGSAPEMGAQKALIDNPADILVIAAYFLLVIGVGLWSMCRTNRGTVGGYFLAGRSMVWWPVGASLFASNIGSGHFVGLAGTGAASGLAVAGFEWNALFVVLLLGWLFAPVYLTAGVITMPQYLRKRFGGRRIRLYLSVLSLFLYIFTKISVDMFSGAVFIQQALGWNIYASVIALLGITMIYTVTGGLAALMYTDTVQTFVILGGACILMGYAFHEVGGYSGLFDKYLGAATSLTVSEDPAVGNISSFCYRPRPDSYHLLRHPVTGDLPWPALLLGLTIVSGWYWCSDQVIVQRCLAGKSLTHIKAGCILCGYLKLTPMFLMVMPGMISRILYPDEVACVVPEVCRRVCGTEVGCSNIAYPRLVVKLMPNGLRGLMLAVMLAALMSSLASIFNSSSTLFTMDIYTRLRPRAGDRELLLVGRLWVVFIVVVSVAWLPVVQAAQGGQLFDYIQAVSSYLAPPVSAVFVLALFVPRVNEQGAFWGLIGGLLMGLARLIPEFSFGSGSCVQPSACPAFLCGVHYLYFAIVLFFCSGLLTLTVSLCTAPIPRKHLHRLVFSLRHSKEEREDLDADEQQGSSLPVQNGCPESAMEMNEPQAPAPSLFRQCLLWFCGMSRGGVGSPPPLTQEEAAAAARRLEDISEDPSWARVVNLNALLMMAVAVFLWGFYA
As to the kind of experiment: in-vitro assay: inhibition of sodium dependent [14C]-AMG uptake into CHO cells stably expressing human SGLT-2. In kind it is cell-based. The settings on record: for IC50: CHO cells stably expressing human SGLT-2, [14C]-AMG uptake, 37°C, 1hr; for Selectivity: ratio SGLT-1 IC50 / SGLT-2 IC50. The protocol: In the in-vitro assay for the pharmacological activities of the present compounds, the human SGLT-2 and SGLT-1 sequences were transfected to Chinese hamster ovary cells to express stably. By measuring inhibition of the sodium dependent adsorption of [^14C]-labeled […]-D-glucopyranoside (AMG) into the cells, the half-inhibition concentration IC50 was determined.
Buffer A (KRH-Na^+): 120 mM NaCl, 4.7 mM KCI, 1.2 mM MgCl2, 2.2 mM CaCl2, 10 mM HEPES (PH 7.4 with 1 mM Tris).
Buffer A- (KRH-NMG): 120 mM NMG, 4.7 mM KCl, 1.2 mM MgCl2, 2.2 mM CaCl2, 10 mM HEPES (PH 7.4 with 1 mM Tris).
Buffer D: 120 mM NaCl, 4.7 mM KCl, 1.2 mM MgCl2, 2.2 mM CaCl2, 10 mM HEPES, 0.5 mM phlorizin (PH 7.4 with 1 mM Tris).
Assay method: Human SGLT-2 and SGLT-1 sequences were stably expressed in the CHO cells. The cell culture was conducted in a 96-well plate for 12hr. The plate was washed with KRH-Na+ (Buffer A) or KRH-NMG (Buffer A-) buffering solution for three times, 200µL/well. Then the plate was added with a buffering solution containing Buffer A or Buffer A- plus [^14C]-AMG (10 µCi/mL), 100µL/well. The cell culture was conducted at 37°C for 1hr. Then, 100µL of an ice pre-cooled buffering solution (Buffer D) was added to terminate the assay. The plate was washed for five times. Then an ice pre-cooled lytic buffering solution (100mM NaOH solution) was added, 20 µL/well, and the centrifugation at 600rpm was conducted for 5mins. Then Microscint 40 solution was added, 80 µl/well, and the centrifugation at 600rpm was conducted for 5mins. Finally, the radioactivity of [^14C]-AMG was detected with MicroBeta Trilux (purchased from PerkinElmer Co. Ltd.) according to the scintillation counting method, and the half-inhibition concentration IC50 was calculated.

Data set [1] is described as follows: rat in-vivo pharmacokinetic assay (PO). As to conditions: Sprague-Dawley (SD), male SD rats, 10 mg/kg; for Tmax / AUC(0-t) / AUC(0-inf) / half-life: plasma; for Tmax: time to peak the concentration in the plasma; for Cmax: peak concentration in the plasma; for AUC(0-t): area under curve from time=0→t; for AUC(0-inf): area under curve from time=0→∞. The protocol:
Assay animals: 6-8 weeks aged male SD rats (purchased from Vital River Laboratories), 3 rats per compound, weighing 200-240g.
Solvent: 0.5% MC(methyl cellulose) solution + 0.1% SDS (sodium dodecyl sulfate).
Intragastric administration (PO): See Table 2 Table 2 Administration of compounds in the rat PK (pharmacokinetic) assay
Blood collection: each of 200 µL whole blood were collected at 0.17hr, 0.5hr, 1hr, 2hr, 4hr, 6hr, 8hr, 24hr, 30hr, 48hr, 54hr and 72hr. The collected blood samples were centrifuged at 4°C at 8000rpm in a low temperature high-speed centrifuge (5415R, Eppendorf) for 6mins to separate the blood plasma. The separated plasma was preserved at -80 °C in a refrigerator.
20µL of the plasma was carefully taken out, to which was added 600µL of an internal standard MTBE (methyl tert-butyl ether) solution (containing internal standard dapagliflozin 25ng/ml). The plasma was subjected to a vortex at 1500 rpm for 10mins, and then centrifuged at 12000 rpm for 5mins. 400µL of the supernatant was taken and blow-dried with nitrogen gas. The dried substance was redissolved with 200µL of a redissolving solution (acetonitrile:water=7:3). The solution was subjected to a vortex for 10mins, and analyzed with LC-MS/MS (API4000, Aplplied Biosystems). Table 3. Rat PK (pharmacokinetic) evaluation results (PO) for the compounds

Compound `OC[C@H]1O[C@@H](c2ccc(Cl)c(Cc3ccc(O[C@H]4C[C@@H]5C[C@@H]5C4)cc3)c2)[C@H](O)[C@@H](O)[C@@H]1O` [Compound represented by formula (II), (2S,3R,4R,5S,6R)-2-(3-(4-(((1R,3s,5S)-bicyclo[3.1.0]hexan-3-yl)oxy)benzyl)-4-chlorophenyl)-6-(hydroxymethyl)tetrahydro-2H-pyran-3,4,5-triol] displayed an IC50 on SGLT-1 of 17200 nM. Moreover, on SGLT-2, the concentration for half-maximal inhibition (IC50) amounted to 2.5 nM and the Selectivity was 6886.93. For the same compound, the Tmax in data set [1] amounted to 1 h.
As to `OC[C@H]1O[C@@H](c2ccc(Cl)c(Cc3ccc(O[C@@H]4C[C@@H]5C[C@@H]5C4)cc3)c2)[C@H](O)[C@@H](O)[C@@H]1O` [Compound represented by formula (III), (2S,3R,4R,5S,6R)-2-(3-(4-(((1R,3r,5S)-bicyclo[3.1.0]hexan-3-yl)oxy)benzyl)-4-chlorophenyl)-6-(hydroxymethyl)tetrahydro-2H-pyran-3,4,5-triol], the IC50 at SGLT-2 was determined as 7.83 nM.
`OC[C@H]1O[C@H](c2ccc(Cl)c(Cc3ccc(O[C@H]4C[C@@H]5C[C@@H]5C4)cc3)c2)[C@H](O)[C@@H](O)[C@@H]1O` [Compound represented by formula (IV), (2R,3R,4R,5S,6R)-2-(3-(4-(((1R,3s,5S)-bicyclo[3.1.0]hexan-3-yl)oxy)benzyl)-4-chlorophenyl)-6-(hydroxymethyl)tetrahydro-2H-pyran-3,4,5-triol] returned an IC50 against SGLT-2 of 1110 nM.
Same read-out and setting: for `OC[C@H]1O[C@H](c2ccc(Cl)c(Cc3ccc(O[C@@H]4C[C@@H]5C[C@@H]5C4)cc3)c2)[C@H](O)[C@@H](O)[C@@H]1O` [Compound represented by formula (V), (2R,3R,4R,5S,6R)-2-(3-(4-(((1R,3r,5S)-bicyclo[3.1.0]hexan-3-yl)oxy)benzyl)-4-chlorophenyl)-6-(hydroxymethyl)tetrahydro-2H-pyran-3,4,5-triol] the value was 282 nM.
`OC[C@H]1OC(c2ccc(Cl)c(Cc3ccc(OC4CC5CC5C4)cc3)c2)[C@H](O)[C@@H](O)[C@@H]1O` (some centres unmarked) [Reference compound 1]: at SGLT-1, the IC50 is 2400 nM. Besides, on SGLT-2, the IC50 came to 3.63 nM and the Selectivity is listed as 660.52. In data set [1], this compound had a Cmax of 4140 ng/mL, an AUC(0-t) of 69600 ng·h/mL, an AUC(0-inf) of 70300 ng·h/mL and a half-life of 10.3 h. Besides, in data set [1], the Tmax worked out at 2 h.
In data set [1], `OC[C@H]1O[C@@H](c2ccc(Cl)c(Cc3ccc(OC4CC5CC5C4)cc3)c2)[C@H](O)[C@@H](O)[C@@H]1O` (some centres unmarked) [Reference compound 2] showed a Cmax of 4980 ng/mL, an AUC(0-t) of 69300 ng·h/mL, an AUC(0-inf) of 69400 ng·h/mL and a half-life of 8.18 h. For the same compound, in data set [1], the Tmax was 2 h.
